Source: US20260174859A1, “ISOINDOLINONE DERIVATIVE HAVING ARYLCYCLOALKYLAMIDE STRUCTURE, AND USE THEREOF” (ONCORD BIO INC, priority 2022, published 2026)

Key:
[1] = test system: NCI-H1155 (lung cancer cells); test: CytoX cell viability assay in NCI-H1155 lung cancer cells; settings: Homo sapiens, NCI-H1155, 72 h; for viability at 0.01 µM: read-out: NCI-H1155 (% viability) at 10 nM; for viability at 0.5 µM: read-out: NCI-H1155 (% viability) at 500 nM
Method: (§1) The viability of NCI-H1155 (lung cancer cells) was measured using the CytoX cell viability assay kit (LPS Solution, #CYT3000). […] CytoX solution was then added to the cells and incubated for 1 hour.

[2] = test system: NCI-H1155 (lung cancer cells)
Method: as §1

[3] = test system: KG-1 cells; test: Cytotoxicity assay (WST-1) in KG-1 cancer cells; assay type: cell-based; settings: Homo sapiens, 72 hours
Method: To evaluate the effects of the compounds of the present disclosure on cancer cells, a cytotoxicity assay was conducted as follows.
Cancer cells (KG-1) were seeded at a density of 10,000 cells per well in 96-well plates. The compound of the present disclosure and control compounds (Comparative Compounds 1, 2, and 3) were treated at predetermined concentrations. After 72 hours, the cells were treated with WST-1 reagent for 1 hour. Then, absorbance was read at 450 nm using a SpectraMax spectrophotometer to determine cell viability.

Row | Structure (SMILES) | viability at 0.01 µM [1] [%] | viability at 0.5 µM [1] [%] | NCI-H1155 (% viability) at 10 nM ([2]; 0.01 µM) [%] | NCI-H1155 (% viability) at 500 nM ([2]; 0.5 µM) [%] | IC50 [3] [µM]
1 | O=C1CCC(N2Cc3cc(CNC(=O)[C@@H]4C[C@H]4c4ccc(Cl)cc4)ccc3C2=O)C(=O)N1 (mixture of isomers) [Cpd. 5, (1R,2R)-2-(4-chlorophenyl)-N-((2-(2,6-dioxopiperidin-3-yl)-1-oxoisoindolin-5-yl)methyl)cyclopropane-1-carboxamide racemic mixture] | 2 | 4 | – | – | –
2 | O=C1CCC(N2Cc3cc(CNC(=O)C(F)(F)c4ccc(Cl)cc4)ccc3C2=O)C(=O)N1 (stereo not drawn) [CC-90009 (Eragidomide), Eragidomide] | – | – | 85.0 | 23.25 | –
3 | O=C1CCC(N2Cc3cc(CNC(=O)c4cc5ccccc5cn4)ccc3C2=O)C(=O)N1 (stereo not drawn) [Comparative Cpd. 1, N-((2-(2,6-dioxopiperidin-3-yl)-1-oxoisoindolin-5-yl)methyl) isoquinoline-3-carboxamide] | – | – | – | – | > 10
4 | O=C1CCC(N2Cc3cc(CNC(=O)c4cnc5ccccc5n4)ccc3C2=O)C(=O)N1 (stereo not drawn) [Comparative Cpd. 2, N-((2-(2,6-dioxopiperidin-3-yl)-1-oxoisoindolin-5-yl)methyl)quinoxaline-2-carboxamide] | – | – | – | – | > 10
5 | O=C1CCC(N2Cc3cc(CNC(=O)c4ccc5cc(Cl)ccc5n4)ccc3C2=O)C(=O)N1 (stereo not drawn) [Comparative Cpd. 3, 6-chloro-N-((2-(2,6-dioxopiperidin-3-yl)-1-oxoisoindolin-5-yl)methyl) quinoline-2-carboxamide] | – | – | – | – | 4.1
6 | O=C1CCC(N2Cc3cc(CNC(=O)[C@@H]4C[C@H]4c4ccccc4)ccc3C2=O)C(=O)N1 (stereo partly drawn) [Cpd. 1, (1R,2R)—N-((2-(2,6-dioxopiperidin-3-yl)-1-oxoisoindolin-5-yl)methyl)-2-phenylcyclopropane-1-carboxamide] | – | – | – | – | 0.002
7 | O=C1CCC(N2Cc3cc(CNC(=O)[C@@H]4C[C@H]4c4ccc(Cl)cc4)ccc3C2=O)C(=O)N1 (stereo partly drawn) [Cpd. 3, (1R,2R)-2-(4-chlorophenyl)-N-((2-(2,6-dioxopiperidin-3-yl)-1-oxoisoindolin-5-yl)methyl)cyclopropane-1-carboxamide] | 4 | 4 | – | – | –
8 | O=C1CCC(N2Cc3cc(CNC(=O)[C@@H]4C[C@@H]4c4ccccc4)ccc3C2=O)C(=O)N1 (stereo partly drawn) [Cpd. 4, (1R,2S)—N-((2-(2,6-dioxopiperidin-3-yl)-1-oxoisoindolin-5-yl)methyl)-2-phenylcyclopropane-1-carboxamide] | 94 | 95 | – | – | –
9 | O=C1CCC(N2Cc3cc(CNC(=O)[C@@H]4C[C@H]4c4cccc(Cl)c4)ccc3C2=O)C(=O)N1 (stereo partly drawn) [Cpd. 6, (1R,2R)-2-(3-chlorophenyl)-N-((2-(2,6-dioxopiperidin-3-yl)-1-oxoisoindolin-5-yl)methyl)cyclopropane-1-carboxamide] | 5 | 4 | – | – | –
10 | O=C1CCC(N2Cc3cc(CNC(=O)[C@H]4C[C@@H]4c4ccccc4)ccc3C2=O)C(=O)N1 (stereo partly drawn) [Cpd. 7, (1S,2S)—N-((2-(2,6-dioxopiperidin-3-yl)-1-oxoisoindolin-5-yl)methyl)-2-phenylcyclopropane-1-carboxamide] | 3 | 4 | – | – | –
11 | O=C1CCC(N2Cc3cc(CNC(=O)[C@@H]4C[C@H]4c4ccc(F)cc4)ccc3C2=O)C(=O)N1 (stereo partly drawn) [Cpd. 8, (1R,2R)—N-((2-(2,6-dioxopiperidin-3-yl)-1-oxoisoindolin-5-yl)methyl)-2-(4-fluorophenyl)cyclopropane-1-carboxamide] | 48 | 26 | – | – | –
12 | O=C1CCC(N2Cc3cc(CNC(=O)[C@@H]4C[C@H]4c4cccc(F)c4)ccc3C2=O)C(=O)N1 (stereo partly drawn) [Cpd. 9, (1R,2R)—N-((2-(2,6-dioxopiperidin-3-yl)-1-oxoisoindolin-5-yl)methyl)-2-(3-fluorophenyl)cyclopropane-1-carboxamide] | 52 | 25 | – | – | –
13 | O=C1CCC(N2Cc3cc(CNC(=O)[C@H]4C[C@@H]4c4cccc(Cl)c4)ccc3C2=O)C(=O)N1 (stereo partly drawn) [Cpd. 10, (1S,2S)-2-(3-chlorophenyl)-N-((2-(2,6-dioxopiperidin-3-yl)-1-oxoisoindolin-5-yl)methyl)cyclopropane-1-carboxamide] | 39 | 25 | – | – | –
14 | O=C1CCC(N2Cc3cc(CNC(=O)C4CC4c4ccc(C(F)(F)F)cc4)ccc3C2=O)C(=O)N1 (stereo not drawn) [Cpd. 11, N-((2-(2,6-dioxopiperidin-3-yl)-1-oxoisoindolin-5-yl)methyl)-2-(4-(trifluoromethyl)phenyl)cyclopropane-1-carboxamide] | 79 | 34 | – | – | –
15 | Cc1ccc([C@H]2C[C@@H]2C(=O)NCc2ccc3c(c2)CN(C2CCC(=O)NC2=O)C3=O)cc1 (stereo partly drawn) [Cpd. 12, (1S,2S)—N-((2-(2,6-dioxopiperidin-3-yl)-1-oxoisoindolin-5-yl)methyl)-2-(p-tolyl)cyclopropane-1-carboxamide] | 44 | 27 | – | – | –
16 | O=C1CCC(N2Cc3cc(CNC(=O)C4CC4c4ccc(Cl)cc4Cl)ccc3C2=O)C(=O)N1 (stereo not drawn) [Cpd. 13, 2-(2,4-dichlorophenyl)-N-((2-(2,6-dioxopiperidin-3-yl)-1-oxoisoindolin-5-yl)methyl)cyclopropane-1-carboxamide] | 27 | 24 | – | – | –
17 | O=C1CCC(N2Cc3cc(CNC(=O)C4CCC4c4ccccc4)ccc3C2=O)C(=O)N1 (stereo not drawn) [Cpd. 14, N-((2-(2,6-dioxopiperidin-3-yl)-1-oxoisoindolin-5-yl)methyl)-2-phenylcyclobutane-1-carboxamide] | 96 | 57 | – | – | –
